Results: patent US7300946B2, “N-(substituted arylmethyl)-4-(disubstituted methyl) piperidines and pyridines” (Bayer CropScience AG, priority 2002, dated 2007)

Tested on: tobacco budworm (Heliothis virescens [Fabricius])
Test: surface-treated diet test against the tobacco budworm
Assay type: in vivo
Details: tobacco budworm second instar larvae, 0.25 millimoles of candidate insecticide on the surface of the diet, five-day exposure; for Percent Mortality: compared to total number of insects infested; for Percent Growth Inhibition: inhibition of insect weight relative to untreated controls
Outline: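 Wheat germ artificial diet surface-treated with 40 µL of 50 mM DMSO stock diluted 1:7 in 1:1 water/acetone (0.25 millimolar on diet), or sub-multiples for rate tests. One second-instar larva per well, 25° C, 60% RH, 5 days; percent weight inhibition vs DMSO controls and percent mortality.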

Compound	Percent Mortality [%]	Percent Growth Inhibition [%]
FC(F)(F)c1ccc(C(=C2CCN(Cc3ccc(Oc4ncccn4)cc3)CC2)c2cccc(Cl)c2)cc1 [Compound 815]	100	100
FC(F)(F)c1ccc(C(=C2CCN(Cc3ccc(Oc4ncccn4)cc3)CC2)c2ccc(Cl)cc2)cc1 [Compound 816]	100	100
Fc1cccc(C(=C2CCN(Cc3ccc(Oc4ncccn4)cc3)CC2)c2ccc(C(F)(F)F)cc2)c1 [Compound 817]	100	100
FC(F)(F)c1ccc(C(=C2CCN(Cc3ccc(Oc4ncccn4)cc3)CC2)c2ccc(Cl)c(Cl)c2)cc1 [Compound 818]	100	100
FC(F)(F)c1ccc(C(=C2CCN(Cc3ccc(Oc4ncccn4)cc3)CC2)c2cc(Cl)cc(Cl)c2)cc1 [Compound 819]	50	100
Fc1cc(F)cc(C(=C2CCN(Cc3ccc(Oc4ncccn4)cc3)CC2)c2ccc(C(F)(F)F)cc2)c1 [Compound 820]	50	92
Fc1cc(C(=C2CCN(Cc3ccc(Oc4ncccn4)cc3)CC2)c2ccc(C(F)(F)F)cc2)ccc1Cl [Compound 821]	100	100
FC(F)(F)c1ccc(C(=C2CCN(Cc3ccc(Oc4ncccn4)cc3)CC2)c2cccc(C(F)(F)F)c2)cc1 [Compound 822]	100	100
FC(F)(F)c1ccc(C(=C2CCN(Cc3ccc(OC4=NCCCN4)cc3)CC2)c2ccc(C(F)(F)F)cc2)cc1 [Compound 823]	67	100
FC(F)(F)c1ccc(C(=C2CCN(Cc3ccc(Oc4ncccn4)cc3)CC2)c2ccc(C(F)(F)F)cc2)cc1 [Compound 824]	100	100
FC(F)(F)c1ccc(C(=C2CCN(Cc3ccc(Oc4cnccn4)cc3)CC2)c2ccc(C(F)(F)F)cc2)cc1 [Compound 825]	83	100
FC(F)(F)c1ccc(C(=C2CCN(Cc3ccc(Oc4ccc(Cl)nn4)cc3)CC2)c2ccc(C(F)(F)F)cc2)cc1 [Compound 826]	100	100
CNC(=O)Oc1ccc(C[N+]2([O-])CCC(=C(c3ccc(Cl)cc3)c3ccc(Cl)cc3)CC2)cc1 (stereo not shown) [Compound 827]	100	100
CNC(=O)Oc1ccc(C[N+]2([O-])CCC(=C(c3ccc(C(F)(F)F)cc3)c3ccc(C(F)(F)F)cc3)CC2)cc1 (stereo not shown) [Compound 828]	100	100
CNC(=O)Oc1ccc(C[N+]2([O-])CCC(=C(c3ccc(OC(F)(F)F)cc3)c3ccc(OC(F)(F)F)cc3)CC2)cc1 (stereo not shown) [Compound 829]	100	100
CC(C)NC(=O)Oc1ccc(C[N+]2([O-])CCC(=C(c3ccc(C(F)(F)F)cc3)c3ccc(C(F)(F)F)cc3)CC2)cc1 (stereo not shown) [Compound 830]	100	100
CC(C)OC(=O)Nc1ccc(C[N+]2([O-])CCC(=C(c3ccc(Cl)cc3)c3ccc(Cl)cc3)CC2)cc1 (stereo not shown) [Compound 831]	100	100
CC(C)OC(=O)Nc1ccc(C[N+]2([O-])CCC(=C(c3ccc(F)cc3)c3ccc(F)cc3)CC2)cc1 (stereo not shown) [Compound 832]	83	100
CC(C)OC(=O)Nc1ccc(C[N+]2([O-])CCC(=C(c3ccc(Cl)c(Cl)c3)c3ccc(Cl)c(Cl)c3)CC2)cc1 (stereo not shown) [Compound 833]	100	100
CC(C)OC(=O)Nc1ccc(C[N+]2([O-])CCC(=C(c3ccc(Cl)c(F)c3)c3ccc(Cl)c(F)c3)CC2)cc1 (stereo not shown) [Compound 834]	100	100
